What was measured:
red blood cells (RBCs) = assay: Hemolysis assay with synthetic peptides on purified RBCs; type: cell-based, human; conditions: 37 °C; for hemolysis by the P7 derivative alone: 2 µM
Procedure: RBCs were purified from whole blood of healthy volunteers. Blood was collected in tubes containing EDTA-K3 as an anticoagulant (approximately 9 mL/tube). To separate RBCs from white blood cells (WBCs) and plasma, three washes were performed by centrifugation (2000× g for 10 min) and subsequent re-suspension to reach 9 mL. First, the RBCs were resuspended in Dulbecco′s Phosphate Buffered Saline (DPBS) + 2% heat inactivated fetal bovine serum, then in pure DPBS, and eventually in RPMI (for assays with live candida) or again DPBS (for assays with peptides). After each centrifugation step, care was taken to remove as many WBCs as possible from the central buffy layer. A hemocytometer (Auto Hematology Analyzer BC-5300 Vet (Mindray, Shenzhen, China)) was used to verify that the WBC count was negligible ([…]) and to determine the RBC concentration. This was then adjusted to 5 × 10^8 cells/mL, in the respective media or buffer.
Peptides were purchased from two different suppliers, namely Proteogenix (Strasbourg, France) and Peptide Protein Research Ltd. (Southampton, UK). Stock solutions were prepared in pure water at a concentration of 1.4 mM, then aliquoted and stored at −20 °C. […] Working solutions were then prepared in the relative buffer at the final concentration indicated for each assay.
To assess the hemolytic potential of C. albicans strains, RBCs and fungal cells were mixed in a 1:1 ratio (5 × 10^7 each, in a final volume of 600 µL) in a 2 mL plastic test tube (screw cap). Every condition was performed in duplicates (technical replicates) and with at least three different donors (biological replicates). Test tubes were then incubated horizontally at 50 rpms, 37 °C, for 24 h. To assess the hemolytic potential of peptides, 10^7 RBCs were incubated with the relevant peptide at the indicated final concentration in a total volume of 150 µL, for 1 h at 37 °C, in a 96-well PCR plate. After incubation, samples were centrifuged (2000× g for 3 min) and 100 µL of supernatant was transferred to a fresh 96-well plate to measure hemoglobin absorbance at 414 nm. Hemolysis was defined as the absorbance of the sample relative to the absorbance of the full lysis control sample (RBCs incubated with pure water), following subtraction of the absorbance of the vehicle control (RBCs incubated with media or buffer only).

[1] = system: candidalysin-induced hemolysis of RBCs; assay: Protection of RBCs from candidalysin-induced lysis by purinergic receptor antagonist; type: cell-based, human; conditions: candidalysin 16 µM, increasing concentrations of PPADS, 1 h, 37 °C
Procedure: Figure 5 The purinergic receptor antagonist pyridoxal-phosphate-6-azophenyl-2′,4′-disulfonic acid (PPADS) protects from candidalysin-induced hemolysis via a purinergic receptor-independent mechanism. (a) Purified RBCs were incubated with candidalysin (16 µM) and increasing concentrations of PPADS, for 1 h at 37 °C. Hemolysis was quantified by measuring the absorbance of sample’s supernatant at 414 nm, and plotted relative to the full lysis control sample (RBCs incubated with pure water and the same amount of PPADS), following subtraction of the relative vehicle control (containing the same amount of PPADS). […] Permeabilization was measured as kinetic changes in conductance of tethered lipid membranes. […]
To assess the hemolytic potential of C. albicans strains, RBCs and fungal cells were mixed in a 1:1 ratio (5 × 10^7 each, in a final volume of 600 µL) in a 2 mL plastic test tube (screw cap). […] After incubation, samples were centrifuged (2000× g for 3 min) and 100 µL of supernatant was transferred to a fresh 96-well plate to measure hemoglobin absorbance at 414 nm. Hemolysis was defined as the absorbance of the sample relative to the absorbance of the full lysis control sample (RBCs incubated with pure water), following subtraction of the absorbance of the vehicle control (RBCs incubated with media or buffer only).

[2] = Membrane permeabilization by candidalysin, tethered bilayer lipid membranes (conductance); conditions: membranes without receptors, candidalysin 5, 10, 20 µM, 37 °C
Procedure: Figure 5 The purinergic receptor antagonist pyridoxal-phosphate-6-azophenyl-2′,4′-disulfonic acid (PPADS) protects from candidalysin-induced hemolysis via a purinergic receptor-independent mechanism. (a) Purified RBCs were incubated with candidalysin (16 µM) and increasing concentrations of PPADS, for 1 h at 37 °C. Hemolysis was quantified by measuring the absorbance of sample’s supernatant at 414 nm, and plotted relative to the full lysis control sample (RBCs incubated with pure water and the same amount of PPADS), following subtraction of the relative vehicle control (containing the same amount of PPADS). Each data point on the graph represents a different donor (average of 2 technical replicates). […] Permeabilization was measured as kinetic changes in conductance of tethered lipid membranes.
Tethered bilayer lipid membranes with 10% tethering lipids and 90% spacer lipids (T10 slides) were formed using the solvent exchange technique according to the manufacturer’s instructions (SDx Tethered Membranes Pty Ltd., Sydney, Australia). […] After rinsing 3× with 100 µL buffer, the conductance and capacitance of the membranes were measured for 20 min before injection of different concentrations of PPADS to the final concentrations in the individual channels as shown. […] Signals were measured using the tethaPod (SDx Tethered Membranes Pty Ltd., Sydney, Australia).

epithelial cells = conditions: cited from earlier work
Excerpt: Candidalysin is generated from the longer polyprotein Ece1, which is processed by the Golgi-located Kex2 protease into eight peptides with C-terminal lysine–arginine (KR) residues. It was subsequently shown that a second processing event occurs by another Golgi-located protease, Kex1 [5, 11] which produces mature candidalysin by removing the C-terminal arginine from P3 [5, 11]. Peptides deriving from a Kex2-only processing are secreted, albeit at lower levels than mature candidalysin [5, 11].

For `CC[C@H](C)[C@H](NC(=O)[C@H](CC(C)C)NC(=O)[C@H](CCC(N)=O)NC(=O)[C@@H]1CCCN1C(=O)[C@H](CC(C)C)NC(=O)[C@H](CCCNC(=N)N)NC(=O)[C@H](CCC(N)=O)NC(=O)[C@H](CC(C)C)NC(=O)[C@H](CC(C)C)NC(=O)[C@H](CCC(=O)O)NC(=O)[C@H](CC(=O)O)NC(=O)[C@H](CC(C)C)NC(=O)[C@H](Cc1ccccc1)NC(=O)[C@H](CC(=O)O)NC(=O)[C@H](CCC(=O)O)NC(=O)[C@H](CC(C)C)NC(=O)CNC(=O)[C@@H](N)CC(=O)O)C(=O)N[C@H](C(=O)N[C@@H](CCCNC(=N)N)C(=O)N[C@@H](CO)C(=O)N[C@@H](C)C(=O)N[C@@H](CCC(=O)O)C(=O)N[C@@H](CO)C(=O)N[C@@H](C)C(=O)N[C@@H](CC(C)C)C(=O)N[C@@H](CCCCN)C(=O)N[C@@H](CC(=O)O)C(=O)N[C@@H](CO)C(=O)N[C@@H](CCC(N)=O)C(=O)N1CCC[C@H]1C(=O)N[C@H](C(=O)N[C@@H](CCCCN)C(=O)O)C(C)C)[C@@H](C)O` [P7K], the “hemolysis by the P7 derivative alone” value (red blood cells (RBCs); 1 h) was “no effect”.
For `CC[C@H](C)[C@H](NC(=O)[C@H](CC(C)C)NC(=O)[C@H](CCC(N)=O)NC(=O)[C@@H]1CCCN1C(=O)[C@H](CC(C)C)NC(=O)[C@H](CCCNC(=N)N)NC(=O)[C@H](CCC(N)=O)NC(=O)[C@H](CC(C)C)NC(=O)[C@H](CC(C)C)NC(=O)[C@H](CCC(=O)O)NC(=O)[C@H](CC(=O)O)NC(=O)[C@H](CC(C)C)NC(=O)[C@H](Cc1ccccc1)NC(=O)[C@H](CC(=O)O)NC(=O)[C@H](CCC(=O)O)NC(=O)[C@H](CC(C)C)NC(=O)CNC(=O)[C@@H](N)CC(=O)O)C(=O)N[C@H](C(=O)O)[C@@H](C)O` [P7a], the “hemolysis by the P7 derivative alone” value (red blood cells (RBCs); 1 h) was “low-level cytolytic activity”.
For `Cc1nc(N=Nc2ccc(S(=O)(=O)O)cc2S(=O)(=O)O)c(COP(=O)(O)O)c(C=O)c1O` [PPADS, pyridoxal-phosphate-6-azophenyl-2′,4′-disulfonic acid], the “effect on candidalysin-induced hemolysis” value [1] was “reduced” and the “effect on permeabilization of artificial membranes by candidalysin” value [2] was “able to inhibit permeabilization”.
For candidalysin, the “reduction of hemolytic potential in the presence of EDTA” value (red blood cells (RBCs); 100 mM EDTA, peptide 9 µM (Proteogenix), 1 h) was 4.2 fold, the “hemolytic activity compared with P3” value (red blood cells (RBCs); all tested concentrations (1–8 µM), time course) was “clearly less hemolytic than P3” and the “effect of pH on lysis efficiency” value (red blood cells (RBCs); pH 5 to 8, buffered HBSS, peptide 9 µM, 1 h) was “Only a minimal difference”. The “effect of adding excess Mg2+ ions (MgCl2) to cells pre-treated with EDTA on cytotoxicity” value (red blood cells (RBCs); peptide 9 µM, EDTA then MgCl2 up to 100 mM, 1 h) was “restored the cytotoxicity”, the “peptide concentration at and above which almost full RBC lysis was observed at the earliest time point” value (red blood cells (RBCs); time course, 5 min incubation, range 1–8 µM, mean of 4 donors) was ≥ 4 µM and the “cytolytic activity against epithelial cells” value (epithelial cells) was “have cytolytic activity”.
